The record followed here is patent US7029857B1, “Processes for obtaining compounds employing SNORF72 receptors” (H. Lundbeck A/S, priority 1999, dated 2006).

The target in assay [1] is T1, SNORF72 (Homo sapiens, UniProt Q9GZQ4, A395T).
T1 construct: expressed in transfected cells; host or cells: COS-7 (transient, DEAE-dextran)
Nature of the assay: Intracellular Ca2+ release (FLIPR) in SNORF72-transfected COS-7 cells. It is filed as cell-based. To be noted: SNORF72, data not shown. On the procedure:
(§1) A typical protocol for the DEAE-dextran method as applied to COS-7 and HEK293 cells is described as follows. Cells to be used for transfection are split 24 hours prior to the transfection to provide flasks which are 70–80% confluent at the time of transfection. Briefly, 8 μg of receptor DNA plus 8 μg of any additional DNA needed (e.g. Gα protein expression vector, reporter construct, antibiotic resistance marker, mock vector, etc.) are added to 9 ml of complete DMEM plus DEAE-dextran mixture (10 mg/ml in PBS). Cells plated into a T225 flask (sub-confluent) are washed once with PBS and the DNA mixture is added to each flask. The cells are allowed to incubate for 30 minutes at 37° C., 5% CO2. Following the incubation, 36 ml of complete DMEM with 80 μM chloroquine is added to each flask and allowed to incubate an additional 3 hours. The medium is then aspirated and 24 ml of complete medium containing 10% DMSO for exactly 2 minutes and then aspirated. The cells are then washed 2 times with PBS and 30 ml of complete DMEM added to each flask. The cells are then allowed to incubate over night. The next day the cells are harvested by trypsinization and reseeded into 96 well plates.
(§2) Cells expressing the receptor of interest are plated into clear, flat-bottom, black-walled 96-well plates (Costar) at a density of 80,000–150,000 cells per well and allowed to incubate for 48 hr at 5% CO2, 37° C. The growth medium is aspirated and 100 μL of loading medium containing Fluo-3 dye is added to each well. The loading medium contains: 20 mM HEPES (Sigma), 0.1% BSA (Sigma), dye/pluronic acid mixture (e.g. 1 mM Fluo-3/AM (Molecular Probes) and 10% pluronic acid (Molecular Probes) mixed immediately before use), and 2.5 mM probenecid (Sigma)(prepared fresh). The cells are allowed to incubate for about 1 hour at 5% CO2, 37° C.
(§3) The compounds of interest are diluted in wash buffer (Hank's BSS (without phenol red), 20 mM HEPES, 2.5 mM probenecid) to a 4× final concentration and aliquoted into a clear v-bottom plate (Nunc). Following the dye incubation, the cells are washed 4 times to remove excess dye using a Denley plate washer. 100 μL final volume of wash buffer is then added to each cell well. Compounds are added to the cell plates and responses are measured using the FLIPR™ instrument. The data are then collected and analyzed using the FLIPR™ software and Graphpad Prism.
(§4) COS-7 cells were transiently transfected with SNORF62, SNORF72 or vector DNA (mock) as described in Materials and Methods.

The target in assay [2] is T1, SNORF72. Nature of the assay: Displacement of [125I]rat NMU-23 binding in SNORF72-transfected COS-7 membranes. The note with it: for displacement of [125I]rat NMU-23 binding: SNORF72 membranes. On the procedure:
(§5) The specifics of preparing such cell membranes may in some cases be determined by the nature of the ensuing assay but typically involve harvesting whole cells and disrupting the cell pellet by sonication in ice cold buffer (e.g. 20 mM Tris HCl, mM EDTA, pH 7.4 at 4° C.). The resulting crude cell lysate is cleared of cell debris by low speed centrifugation at 200×g for 5 min at 4° C. The cleared supernatant is then centrifuged at 40,000×g for 20 min at 4° C., and the resulting membrane pellet is washed by suspending in ice cold buffer and repeating the high speed centrifugation step. The final washed membrane pellet is resuspended in assay buffer. Protein concentrations are determined by the method of Bradford (1976) using bovine serum albumin as a standard. The membranes may be used immediately or frozen for later use.
(§6) Radioligand binding assays were performed by diluting membranes prepared from cells expressing the receptor in 50 mM Tris buffer (pH=7.4 at 0° C.) containing 0.1% bovine serum albumin (Sigma), aprotinin (0.005 mg/ml, Boehringer Mannheim) and bestatin (0.1 mM, Sigma) as protease inhibitors. The final protein concentration in the assay was 12–40 μg/ml. […] The bound ligand was separated from free by filtration through GF/B filters presoaked in 0.5% polyethyleneimine (PEI), using a Tomtec (Wallac) vacuum filtration device. After addition of Ready Safe (Beckman) scintillation fluid, bound radioactivity was quantitated using a Trilux (Wallac) scintillation counter (approximately 40% counting efficiency of bound counts). Data was fit to non-linear curves using GraphPad Prism.
(§7) In this manner, agonist or antagonist compounds that bind to the receptor may be identified as they inhibit the binding of the labeled ligand to the membrane protein of cells expressing the said receptor. Non-specific binding was defined as the amount of radioactivity remaining after incubation of membrane protein in the presence of 100 nM of the unlabeled peptide corresponding to the radioligand used. In equilibrium saturation binding assays membrane preparations or intact cells transfected with the receptor are incubated in the presence of increasing concentrations of the labeled compound to determine the binding affinity of the labeled ligand.

The target of assay [3] is T2, SNORF62 (Homo sapiens, UniProt Q9HB89).
T2 sequence (Q9HB89 1-426): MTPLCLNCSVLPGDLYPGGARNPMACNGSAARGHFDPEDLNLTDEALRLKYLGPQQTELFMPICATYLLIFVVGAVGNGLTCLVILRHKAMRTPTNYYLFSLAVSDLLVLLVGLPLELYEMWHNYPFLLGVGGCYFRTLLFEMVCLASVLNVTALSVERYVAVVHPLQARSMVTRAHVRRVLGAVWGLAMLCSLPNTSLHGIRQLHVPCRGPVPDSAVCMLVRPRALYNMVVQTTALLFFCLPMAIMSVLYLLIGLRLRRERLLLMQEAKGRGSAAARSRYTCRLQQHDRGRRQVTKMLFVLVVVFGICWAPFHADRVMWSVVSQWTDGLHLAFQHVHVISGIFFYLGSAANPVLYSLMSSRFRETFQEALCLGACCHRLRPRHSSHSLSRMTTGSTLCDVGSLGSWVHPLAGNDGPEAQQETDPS
Nature of the assay: Intracellular Ca2+ release (FLIPR) in SNORF62-transfected COS-7 cells. It is filed as cell-based. Also noted: The SNORF62 cDNA codes for a protein of 426 amino acids; expressed in transfected cells; host or cells: COS-7 (transient, DEAE-dextran). The note with it: SNORF62, data not shown. On the procedure: as §1, §2, §3, §4

Assay [4] has as its target T2, SNORF62. Kind of assay: Displacement of [125I]rat NMU-23 binding in SNORF62-transfected COS-7 membranes. Also noted: The SNORF62 cDNA codes for a protein of 426 amino acids; expressed in transfected cells; host or cells: COS-7 (transient, DEAE-dextran). The note with it: for displacement of [125I]rat NMU-23 binding: SNORF62 membranes. Here is the method:
as §5, §6, §7
(Displacement assays read how much labelled ligand stays bound in the presence of the test substance.)

For assay [5], the target named is T3, human SNORF62 receptor (human, UniProt Q9HB89 1-426).
T3 sequence: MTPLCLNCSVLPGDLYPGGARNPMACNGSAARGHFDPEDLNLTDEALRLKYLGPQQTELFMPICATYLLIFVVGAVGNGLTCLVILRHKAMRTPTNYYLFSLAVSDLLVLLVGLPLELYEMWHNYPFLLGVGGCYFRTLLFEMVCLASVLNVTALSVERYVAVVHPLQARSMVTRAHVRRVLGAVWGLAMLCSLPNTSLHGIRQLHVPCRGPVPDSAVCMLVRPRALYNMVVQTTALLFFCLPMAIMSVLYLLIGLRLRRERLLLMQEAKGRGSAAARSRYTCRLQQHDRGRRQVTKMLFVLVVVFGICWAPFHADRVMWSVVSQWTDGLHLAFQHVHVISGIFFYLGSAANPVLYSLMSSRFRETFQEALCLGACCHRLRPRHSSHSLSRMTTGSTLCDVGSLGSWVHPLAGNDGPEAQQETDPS
Nature of the assay: displacement of [125I]rat NMU-23, membranes of SNORF62-transfected COS-7 cells. On the procedure:
as §6, with “µg/ml.” for “μg/ml.”

Assay [6] addresses T4, human SNORF72 receptor (human, UniProt Q9GZQ4 1-415). Kind of assay: displacement of [125I]rat NMU-23, membranes of SNORF72-transfected COS-7 cells. Here is the method:
as §6, with “µg/ml.” for “μg/ml.”

For assay [7], the target named is T3, human SNORF62 receptor. Nature of the assay: displacement of [125I]rat NMU-23 (0.05-0.1 nM), membranes of SNORF62-transfected COS-7 cells, n=2. Here is the method: as §6, with “µg/ml.” for “μg/ml.”
Assay [8] has as its target T4, human SNORF72 receptor. Kind of assay: displacement of [125I]rat NMU-23 (0.05-0.1 nM), membranes of SNORF72-transfected COS-7 cells, n=2. On the procedure: as §6, with “µg/ml.” for “μg/ml.”

Like-named read-outs stand apart in the source and are kept apart here. No end group written: not given here.

T4 sequence (Q9GZQ4 other isoform, or with tags, fused parts or gaps): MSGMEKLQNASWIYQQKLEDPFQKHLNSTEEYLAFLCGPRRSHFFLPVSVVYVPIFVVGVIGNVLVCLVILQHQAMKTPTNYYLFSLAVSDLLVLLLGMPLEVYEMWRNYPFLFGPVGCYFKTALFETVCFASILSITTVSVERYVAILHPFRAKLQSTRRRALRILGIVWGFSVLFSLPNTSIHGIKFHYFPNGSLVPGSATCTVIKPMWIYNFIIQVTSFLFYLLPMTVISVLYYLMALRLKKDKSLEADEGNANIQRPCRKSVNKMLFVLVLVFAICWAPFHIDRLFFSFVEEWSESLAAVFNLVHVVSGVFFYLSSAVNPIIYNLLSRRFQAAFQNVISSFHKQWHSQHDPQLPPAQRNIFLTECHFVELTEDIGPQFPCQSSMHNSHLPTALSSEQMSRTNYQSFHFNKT
T1 sequence (Q9GZQ4 whole entry A395T): as the sequence (Q9GZQ4 other isoform, or with tags, fused parts or gaps) above

In the case of “APSEPHHPGDQATQDQLAQYYSDLYQYITFVTRPRF-NH2 (C-terminus assumed) [frog PP]”, the “activate the receptors in transfected COS-7 cells” value (“activate the receptors” below) at SNORF72 [1] and on SNORF62 [3] was “did not” in each case. Besides, the “displacement of [125I]rat NMU-23 binding” value at SNORF72 [2] and on SNORF62 [4] was “did not displace binding” throughout.

Usually pKi stands for the negative decadic logarithm of the Ki, by convention in mol/L. In the case of frog PP (peptide), the Ki in the assay with human SNORF62 receptor [5] and with human SNORF72 receptor [6] was above 10 µM each time. Moreover, the pKi in the assay with human SNORF62 receptor [7] and in the assay with human SNORF72 receptor [8] was below 5 each time.

As to `CC[C@H](C)[C@H](NC(=O)[C@H](CO)NC(=O)[C@H](CC(N)=O)NC(=O)[C@H](CC(C)C)NC(=O)[C@H](Cc1ccc(O)cc1)NC(=O)[C@H](CCCCN)NC(=O)[C@H](CCCCN)NC(=O)[C@@H](NC(=O)[C@H](C)NC(=O)[C@H](CCSC)NC(=O)[C@H](CCC(N)=O)NC(=O)[C@H](CCCCN)NC(=O)[C@H](CCCNC(=N)N)NC(=O)[C@H](CC(C)C)NC(=O)[C@H](CCCNC(=N)N)NC(=O)[C@@H](NC(=O)[C@H](Cc1ccc(O)cc1)NC(=O)[C@H](CC(N)=O)NC(=O)[C@H](CC(=O)O)NC(=O)[C@@H](NC(=O)[C@H](Cc1ccccc1)NC(=O)[C@@H](NC(=O)[C@H](C)NC(=O)[C@H](CC(=O)O)NC(=O)[C@H](CO)NC(=O)[C@@H](N)Cc1c[nH]cn1)C(C)C)[C@@H](C)O)[C@@H](C)O)C(C)C)C(=O)N[C@@H](CC(C)C)C(=O)N[C@@H](CC(N)=O)C(N)=O` [VIP], the “activate the receptors” value on SNORF72 [1] and on SNORF62 [3] was “did not” each time. In addition, the “displacement of [125I]rat NMU-23 binding” value at SNORF72 [2] and on SNORF62 [4] was “did not displace binding” throughout.

For the molecule `CC[C@H](C)[C@H](NC(=O)[C@H](Cc1ccc(O)cc1)NC(=O)[C@H](CCCNC(=N)N)NC(=O)[C@H](CCCNC(=N)N)NC(=O)[C@H](CC(C)C)NC(=O)[C@H](CCC(N)=O)NC(=O)[C@@H](NC(=O)[C@H](CCC(=O)O)NC(=O)[C@H](Cc1ccc(O)cc1)NC(=O)[C@H](CCC(N)=O)NC(=O)[C@H](C)NC(=O)[C@H](CCCNC(=N)N)NC(=O)[C@H](CCC(N)=O)NC(=O)[C@H](CCC(=O)O)NC(=O)[C@H](Cc1c[nH]cn1)NC(=O)[C@@H](NC(=O)[C@H](C)NC(=O)[C@H](Cc1ccc(O)cc1)NC(=O)[C@H](CC(=O)O)NC(=O)CNC(=O)[C@@H]1CCCN1C(=O)[C@H](Cc1ccc(O)cc1)NC(=O)[C@H](CCSC)NC(=O)[C@@H]1CCCN1C(=O)[C@H](CCC(=O)O)NC(=O)[C@H](CC(C)C)NC(=O)[C@@H]1CCCN1C(=O)[C@H](C)N)[C@@H](C)O)[C@@H](C)O)C(=O)N[C@@H](CC(N)=O)C(=O)N[C@H](C(=O)N[C@@H](CC(C)C)C(=O)N[C@H](C(=O)N[C@@H](CCCNC(=N)N)C(=O)N1CCC[C@H]1C(=O)N[C@@H](CCCNC(=N)N)C(=O)N[C@@H](Cc1ccc(O)cc1)C(N)=O)[C@@H](C)O)[C@@H](C)O` [rat PP], the “activate the receptors” value on SNORF72 [1] and at SNORF62 [3] was “did not” each time. Moreover, the “displacement of [125I]rat NMU-23 binding” value on SNORF72 [2] and at SNORF62 [4] was “did not displace binding” throughout. Moreover, the Ki on SNORF72 [2] (binding affinity, SNORF72-transfected COS-7 cells, unit printed in cell (Table 1A), read-out: SNORF72 Avg Ki) was above 10 µM; on SNORF72 [2] (displacement of [125I]rat NMU-23 (0.05-0.1 nM), n = 2 (Table 2), read-out: SNORF72 Avg pKi (converted)), above 10 µM; on SNORF62 [4] (binding affinity, SNORF62-transfected COS-7 cells, unit printed in cell (Table 1A), read-out: SNORF62 Avg Ki), above 10 µM; at SNORF62 [4] (displacement of [125I]rat NMU-23 (0.05-0.1 nM), n = 2 (Table 2), read-out: SNORF62 Avg pKi (converted)), above 10 µM.

Regarding HSDAVFTDNYTRLRKQMAVKKYLNSILN-NH2 (peptide, UniProt P01282 125-152, looked up, species assumed, ends and bridges not checked) [vasoactive intestinal peptide], the Ki with human SNORF62 receptor [5] and with human SNORF72 receptor [6] was above 10 µM in each case. The pKi with human SNORF62 receptor [7] and with human SNORF72 receptor [8] was below 5 in each case.

Take APLEPMYPGDYATHEQRAQYETQLRRYINTLTRPRY (peptide, UniProt P06303 30-65, looked up, also called rat pancreatic polypeptide) [rat PP]: the Ki in the assay with human SNORF62 receptor [5] and with human SNORF72 receptor [6] was above 10 µM throughout. Also, the pKi in the assay with human SNORF62 receptor [7] and with human SNORF72 receptor [8] was below 5 each time.
